Results on 10 molecules are retold here after PMC7646624 (European journal of medicinal chemistry, 2020).

SMILES strings stand for the structures. “Also recorded” adds a separate entry of the source.

Experiment [1] concerns H3K4, H3K27, H3K36, H4K20 methylation. As to the kind of experiment: Western blot analysis of other histone methylation marks in MLL-AF9 cells.
The target of experiment [2] is T1, GST-DOT1L (Homo sapiens, UniProt Q8TEK3). As to the kind of experiment: Saturation transfer difference. In kind it is binding. Particulars: SAH added in five-fold molar excess.
T1 sequence (Q8TEK3 1-420): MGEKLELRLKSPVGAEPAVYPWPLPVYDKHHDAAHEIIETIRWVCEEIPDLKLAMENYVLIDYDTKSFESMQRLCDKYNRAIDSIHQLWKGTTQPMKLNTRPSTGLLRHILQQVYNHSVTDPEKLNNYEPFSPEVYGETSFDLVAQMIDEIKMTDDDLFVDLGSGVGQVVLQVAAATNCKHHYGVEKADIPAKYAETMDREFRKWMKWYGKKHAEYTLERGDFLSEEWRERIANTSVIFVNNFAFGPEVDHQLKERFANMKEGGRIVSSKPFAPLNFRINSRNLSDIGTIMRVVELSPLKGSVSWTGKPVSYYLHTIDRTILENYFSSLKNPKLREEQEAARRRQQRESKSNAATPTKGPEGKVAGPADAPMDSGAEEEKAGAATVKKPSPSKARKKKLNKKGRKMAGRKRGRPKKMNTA
The next experiment concerns H3K79 methylation. As to the kind of experiment: Western blot analysis of H3K79 methylation in MLL-AF9 cells.
Experiment [3] deals with T1, GST-DOT1L. Kind of experiment: In vitro radio-isotope labeling DOT1L histone methyltransferase. Particulars: ratio of IC50 values, initial radio-isotope assays.
In another experiment the target is PRMT5-MEP50 complex (Homo sapiens, UniProt O14744). Kind of experiment: Methyltransferase profiling. In kind it is biochemical.
Sequence of PRMT5-MEP50 complex (O14744 whole entry): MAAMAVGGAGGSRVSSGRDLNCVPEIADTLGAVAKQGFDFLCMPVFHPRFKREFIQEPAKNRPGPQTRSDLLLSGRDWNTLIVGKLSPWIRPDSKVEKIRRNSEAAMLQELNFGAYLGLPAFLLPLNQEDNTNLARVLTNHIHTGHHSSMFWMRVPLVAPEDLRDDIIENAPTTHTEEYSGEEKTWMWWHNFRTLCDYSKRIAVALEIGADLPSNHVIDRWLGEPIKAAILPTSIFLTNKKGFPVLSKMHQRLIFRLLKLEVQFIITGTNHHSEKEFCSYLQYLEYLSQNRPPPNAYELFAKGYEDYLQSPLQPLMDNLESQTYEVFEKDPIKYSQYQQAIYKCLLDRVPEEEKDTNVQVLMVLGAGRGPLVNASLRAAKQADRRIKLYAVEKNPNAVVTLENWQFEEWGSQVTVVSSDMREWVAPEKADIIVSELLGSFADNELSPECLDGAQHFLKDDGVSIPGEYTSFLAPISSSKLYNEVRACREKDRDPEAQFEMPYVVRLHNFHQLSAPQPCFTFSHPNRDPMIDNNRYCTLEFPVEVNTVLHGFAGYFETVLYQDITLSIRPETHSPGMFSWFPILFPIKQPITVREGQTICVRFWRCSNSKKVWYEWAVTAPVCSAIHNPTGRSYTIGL
Sequence of PRMT5-MEP50 complex (Q9BQA1 whole entry partner): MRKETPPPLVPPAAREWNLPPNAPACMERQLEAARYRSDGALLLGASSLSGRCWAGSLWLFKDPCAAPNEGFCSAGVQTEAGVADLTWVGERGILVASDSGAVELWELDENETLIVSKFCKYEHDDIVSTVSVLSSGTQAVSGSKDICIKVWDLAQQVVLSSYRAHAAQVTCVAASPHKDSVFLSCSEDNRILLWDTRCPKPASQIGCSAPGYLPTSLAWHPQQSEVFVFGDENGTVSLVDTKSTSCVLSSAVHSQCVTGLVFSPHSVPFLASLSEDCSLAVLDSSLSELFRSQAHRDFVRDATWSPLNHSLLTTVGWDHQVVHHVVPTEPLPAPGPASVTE
A further experiment addresses PRMT6 (Homo sapiens, UniProt Q96LA8). As to the kind of experiment: Methyltransferase profiling. Type of experiment: biochemical.
A further experiment deals with T2, PRMT4 (Homo sapiens, UniProt Q86X55).
T2 sequence (Q86X55 1-608): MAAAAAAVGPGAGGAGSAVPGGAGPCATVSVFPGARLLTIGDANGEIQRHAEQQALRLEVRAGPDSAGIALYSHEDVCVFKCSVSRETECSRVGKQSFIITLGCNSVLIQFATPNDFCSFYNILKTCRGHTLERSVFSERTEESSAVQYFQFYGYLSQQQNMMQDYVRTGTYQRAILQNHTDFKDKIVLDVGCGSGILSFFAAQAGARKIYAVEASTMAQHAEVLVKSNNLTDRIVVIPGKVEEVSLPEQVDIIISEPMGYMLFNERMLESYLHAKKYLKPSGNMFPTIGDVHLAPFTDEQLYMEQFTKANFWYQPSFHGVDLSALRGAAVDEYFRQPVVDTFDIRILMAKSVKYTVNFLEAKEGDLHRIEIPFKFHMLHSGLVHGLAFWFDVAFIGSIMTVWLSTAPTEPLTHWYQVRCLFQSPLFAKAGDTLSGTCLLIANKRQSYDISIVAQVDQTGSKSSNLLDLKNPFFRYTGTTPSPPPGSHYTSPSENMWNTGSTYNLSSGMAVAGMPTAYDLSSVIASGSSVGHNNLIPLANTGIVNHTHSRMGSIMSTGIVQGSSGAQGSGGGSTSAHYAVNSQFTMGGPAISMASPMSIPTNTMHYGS
As to the kind of experiment: Methyltransferase profiling. Type of experiment: biochemical.

In a further experiment the target is PRMT1 (Homo sapiens, UniProt Q99873). Kind of experiment: Methyltransferase profiling. Type of experiment: biochemical.
Sequence of PRMT1 (Q99873 whole entry): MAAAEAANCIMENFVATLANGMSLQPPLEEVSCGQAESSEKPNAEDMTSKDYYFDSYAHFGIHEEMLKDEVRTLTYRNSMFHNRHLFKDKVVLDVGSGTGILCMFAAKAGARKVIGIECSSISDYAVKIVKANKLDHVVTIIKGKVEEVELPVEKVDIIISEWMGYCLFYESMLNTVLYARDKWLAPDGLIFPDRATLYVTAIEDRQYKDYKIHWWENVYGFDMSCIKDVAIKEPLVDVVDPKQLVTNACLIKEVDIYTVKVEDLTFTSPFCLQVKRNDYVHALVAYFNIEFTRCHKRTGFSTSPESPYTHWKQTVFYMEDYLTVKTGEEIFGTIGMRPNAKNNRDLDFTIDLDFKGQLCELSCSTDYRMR
The target of a further experiment is SUV39H2 (Homo sapiens, UniProt Q9H5I1). As to the kind of experiment: Methyltransferase profiling. Type of experiment: biochemical.
Sequence of SUV39H2 (Q9H5I1 whole entry): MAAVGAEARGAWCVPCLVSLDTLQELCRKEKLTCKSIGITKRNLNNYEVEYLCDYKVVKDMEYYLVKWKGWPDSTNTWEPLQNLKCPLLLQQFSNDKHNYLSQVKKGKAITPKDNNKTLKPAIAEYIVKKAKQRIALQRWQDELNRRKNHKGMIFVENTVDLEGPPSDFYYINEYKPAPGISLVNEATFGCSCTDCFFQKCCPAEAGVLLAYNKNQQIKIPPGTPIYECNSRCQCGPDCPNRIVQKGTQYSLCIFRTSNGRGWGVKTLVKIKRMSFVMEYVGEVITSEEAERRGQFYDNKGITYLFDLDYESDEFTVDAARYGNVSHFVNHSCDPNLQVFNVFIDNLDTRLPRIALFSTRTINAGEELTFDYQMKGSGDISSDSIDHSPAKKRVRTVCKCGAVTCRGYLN
The subject of experiment [4] is panel of Methyltransferases. Kind of experiment: Methyltransferase profiling. In kind it is biochemical. The conditions noted are these: omitted from Table 2.
For a further experiment, the target named is PRMT3 (Homo sapiens, UniProt O60678). Kind of experiment: biochemical.
Sequence of PRMT3 (O60678 whole entry): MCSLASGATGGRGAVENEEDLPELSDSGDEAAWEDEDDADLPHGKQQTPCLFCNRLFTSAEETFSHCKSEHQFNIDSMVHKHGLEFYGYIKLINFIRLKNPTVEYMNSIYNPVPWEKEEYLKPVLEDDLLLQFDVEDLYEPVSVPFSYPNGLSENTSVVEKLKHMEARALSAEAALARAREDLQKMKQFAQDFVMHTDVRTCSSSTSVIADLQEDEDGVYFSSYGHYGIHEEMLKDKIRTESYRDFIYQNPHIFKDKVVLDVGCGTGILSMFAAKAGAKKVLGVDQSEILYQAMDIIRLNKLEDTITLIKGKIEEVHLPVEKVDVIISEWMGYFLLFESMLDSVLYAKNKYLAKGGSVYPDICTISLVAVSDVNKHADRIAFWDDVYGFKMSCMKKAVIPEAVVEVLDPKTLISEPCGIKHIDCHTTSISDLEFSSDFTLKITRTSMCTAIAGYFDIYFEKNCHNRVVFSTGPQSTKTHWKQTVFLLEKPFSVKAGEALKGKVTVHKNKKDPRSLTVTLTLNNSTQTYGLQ
The next experiment has as its target PRMT5 Alone (Homo sapiens, UniProt O14744). Kind of experiment: biochemical.
The test system of experiment [5] is MLL-AF9 transformed cells.
The test system of experiment [6] is MLL-AF9 transformed cells. The conditions noted are these: various doses.
Another experiment concerns E2A-HLF cells. Particulars: DOT1L-independent negative control line.

Sequence of PRMT6 (Q96LA8 whole entry): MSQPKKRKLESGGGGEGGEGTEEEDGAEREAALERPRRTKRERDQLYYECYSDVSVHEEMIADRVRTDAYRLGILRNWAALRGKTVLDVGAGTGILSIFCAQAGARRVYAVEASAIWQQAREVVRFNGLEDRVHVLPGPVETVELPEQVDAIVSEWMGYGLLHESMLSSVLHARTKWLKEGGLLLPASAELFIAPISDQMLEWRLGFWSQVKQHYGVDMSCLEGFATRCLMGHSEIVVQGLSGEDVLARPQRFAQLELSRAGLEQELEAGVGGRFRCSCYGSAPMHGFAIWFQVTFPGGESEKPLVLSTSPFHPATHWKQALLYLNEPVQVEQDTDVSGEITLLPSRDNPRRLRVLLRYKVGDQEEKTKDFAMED
Sequence of PRMT5 Alone (O14744 whole entry): as the sequence (O14744 whole entry) above

With `Nc1ncnc2c1ncn2[C@@H]1O[C@H](CNCc2ccc(OCC(=O)Nc3ccccn3)cc2)[C@@H](O)[C@H]1O` [Compound 2], in experiment [1], the “H3K4, H3K27, and H3K36 trimethylation states” value is “not changed”. The “competitive STD NMR with SAH” value on GST-DOT1L [2] was “competed off by SAH”. Also, in the experiment with H3K79 methylation (time course of 3, 6 and 9 days), the “cellular H3K79 methylation” value is “inhibits cellular H3K79 dimethylation; also recorded: reduced”.
Turning to `Cc1ccc(NC(=O)c2ncn(CC(=O)NCc3ccc4c(c3)OCO4)n2)cc1C` [Compound 9, 1-(2-((benzo[d][1,3]dioxol-5-ylmethyl)amino)-2-oxoethyl)-N-(3,4-dimethylphenyl)-1H-1,2,4-triazole-3-carboxamide], the “fold better activity than 8” value on GST-DOT1L [3] is given as 1.5 fold.
Take `Cc1ccc(NC(=O)c2ncn(CC(=O)NCc3ccc4c(N)nccc4c3)n2)cc1C` [Compound 19, 1-(2-(((1-aminoisoquinolin-6-yl)methyl)amino)-2-oxoethyl)-N-(3,4-dimethylphenyl)-1H-1,2,4-triazole-3-carboxamide]: the IC50 at PRMT5-MEP50 complex, against PRMT6, on PRMT4 and against PRMT1 was greater than 250 µM each time.
In turn, `Cc1ccc(NC(=O)c2ncn(CC(=O)NCCn3ccc4c(N)ncnc43)n2)cc1C` [Compound 20, 1-(2-((2-(4-amino-7H-pyrrolo[2,3-d]pyrimidin-7-yl)ethyl)amino)-2-oxoethyl)-N-(3,4-dimethylphenyl)-1H-1,2,4-triazole-3-carboxamide] showed an IC50 against SUV39H2 greater than 250 µM.
Turning to `CC(C)(C)c1ccc(NC(=O)c2ncn(CC(=O)NCc3ccc4c(c3)OCO4)n2)cc1` [Compound 22, 1-(2-((benzo[d][1,3]dioxol-5-ylmethyl)amino)-2-oxoethyl)-N-(4-(tert-butyl)phenyl)-1H-1,2,4-triazole-3-carboxamide], the “activity versus all MTs tested in the profiling assays” value in [4] was “inactive”.
On to `CC(C)(C)c1ccc(NC(=O)c2ncn(CC(=O)NCc3ccc4[nH]ncc4c3)n2)cc1` [Compound 23, 1-(2-(((1H-indazol-5-yl)methyl)amino)-2-oxoethyl)-N-(4-(tert-butyl)phenyl)-1H-1,2,4-triazole-3-carboxamide], for which the IC50 against SUV39H2 is greater than 250 µM.
As to `CC(C)(C)c1ccc(NC(=O)c2ncn(CC(=O)NCc3ccc4c(N)nccc4c3)n2)cc1` [Compound 24, 1-(2-(((1-aminoisoquinolin-6-yl)methyl)amino)-2-oxoethyl)-N-(4-(tert-butyl)phenyl)-1H-1,2,4-triazole-3-carboxamide], the IC50 was greater than 250 µM against PRMT5-MEP50 complex; greater than 250 µM against PRMT6; 41.1 µM on PRMT3; greater than 250 µM against SUV39H2; 227 µM at PRMT5 Alone; greater than 250 µM against PRMT4. The IC50 against PRMT1 is greater than 250 µM.
`CC(C)(C)c1ccc(NC(=O)c2ncn(CC(=O)NCCn3ccc4c(N)ncnc43)n2)cc1` [Compound 25, 1-(2-((2-(4-amino-7H-pyrrolo[2,3-d]pyrimidin-7-yl)ethyl)amino)-2-oxoethyl)-N-(4-(tert-butyl)phenyl)-1H-1,2,4-triazole-3-carboxamide]: the IC50 is greater than 250 µM on PRMT5-MEP50 complex; greater than 250 µM on PRMT6; 149 µM on PRMT3; greater than 250 µM at SUV39H2; 187 µM against PRMT5 Alone; greater than 250 µM on PRMT4. The same molecule displayed an IC50 on PRMT1 greater than 250 µM. For the same molecule, the “H3K4me3 and H4K20me2” value in [1] (day 6) is listed as “no significant changes”. In experiment [5] (day 11 at 30 μM), the “cell growth inhibition of MLL-AF9 cells” value is recorded as “complete cell growth inhibition”. For the same molecule, the “killing of MLL-AF9 cells versus E2A-HLF cells” value in experiment [5] (murine established leukemia cell lines) is recorded as “selectively killed MLL-AF9”. For the same molecule, in [6], the “cell differentiation, Wright-Giemsa stain” value was “dose-dependent cell differentiation”. The “effect on the growth of E2A-HLF cells” value in the experiment with E2A-HLF cells was “without showing any effect on the growth”. Moreover, the “cellular H3K79 methylation” value in the experiment with H3K79 methylation (day 6) is on record as “dose-dependent inhibition”; in the experiment on H3K79 methylation (day 9, 30 μM) it was “complete inhibition”; in the experiment with H3K79 methylation (day 9, 10 and 3 μM), “significant decrease”.
Take `Nc1nccc2cc(CNC(=O)Cn3cnc(C(=O)NC4CCCCC4)n3)ccc12` [Compound 28, 1-(2-(((1-aminoisoquinolin-6-yl)methyl)amino)-2-oxoethyl)-N-cyclohexyl-1H-1,2,4-triazole-3-carboxamide]: the IC50 against PRMT5-MEP50 complex, against PRMT6, at PRMT4 and against PRMT1 was greater than 250 µM in each case.
On to `Nc1ncnc2c1ncn2[C@@H]1O[C@H](CSCC[C@H](N)C(=O)O)[C@@H](O)[C@H]1O` [SAH, S-adenosylhomocysteine, reference compound], for which half-maximal inhibition on PRMT3 (IC50) was put at 1.44 µM.
